Target: T1, PDGF-receptor beta enzyme comprising the tyrosine kinase domain (Homo sapiens, UniProt P09619)
T1 construct: from amino acid 545 to 1106 of GenBank Access NO: AAA36427
Experiment: Inhibition of PDGF-receptor kinase activity (cell-free, PLC1 peptide, 33P Flashplate)
Format: biochemical
Conditions: PDGF-R kinase activity; for inhibition at 10 µM: compound at 10 uM, read-out: Percent Inhibition @ 10 uM; for IC50: read-out: IC50
How it was run: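 Recombinant kinase domain (aa 545–1106) phosphorylated a biotinylated PLC1 peptide with 5 μM ATP plus 33P-γ-ATP, in Tris pH 8, MgCl2, Na3VO4 and 1 mM DTT, for 60 min at 30 °C. Retained 33P was counted after washing. IC50 is the concentration halving activity versus no-inhibitor reactions.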

T1 sequence (P09619 545-1106): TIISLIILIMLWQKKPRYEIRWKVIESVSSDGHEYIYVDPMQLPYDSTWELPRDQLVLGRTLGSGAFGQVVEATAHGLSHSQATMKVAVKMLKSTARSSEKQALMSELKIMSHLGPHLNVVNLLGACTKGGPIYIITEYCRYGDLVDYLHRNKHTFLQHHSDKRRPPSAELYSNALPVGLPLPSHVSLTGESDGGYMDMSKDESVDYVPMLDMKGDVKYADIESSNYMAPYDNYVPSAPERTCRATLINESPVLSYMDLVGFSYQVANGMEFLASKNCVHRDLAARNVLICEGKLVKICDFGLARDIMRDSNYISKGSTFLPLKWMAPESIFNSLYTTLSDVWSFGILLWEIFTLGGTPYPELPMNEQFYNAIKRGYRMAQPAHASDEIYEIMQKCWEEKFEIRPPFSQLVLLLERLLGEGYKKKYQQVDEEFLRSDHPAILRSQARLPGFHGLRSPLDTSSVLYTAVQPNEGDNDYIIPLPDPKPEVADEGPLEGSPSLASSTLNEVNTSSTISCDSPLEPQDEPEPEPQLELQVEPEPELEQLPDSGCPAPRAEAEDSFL

| SMILES | inhibition at 10 µM [%] | IC50 [µM] |
| --- | --- | --- |
| COc1ccc2c(c1)Cc1c-2n[nH]c1Nc1cccnc1 [Compound 84, (6-Methoxy-2,4-dihydro-indeno[1,2-c]pyrazol-3-yl)-pyridin-3-yl-amine] | 86 | 0.71 |
| COc1ccc2c(c1)Cc1c-2n[nH]c1Nc1cc(OC)ccc1OC [Compound 85, (2,5-Dimethoxy-phenyl)-(6-methoxy-2,4-dihydro-indeno[1,2-c]pyrazol-3-yl)-amine] | 61 | 5.82 |
| COc1ccc2c(c1)Cc1c-2n[nH]c1Nc1ccc(OC)c(OC)c1 [Compound 86, (3,4-Dimethoxy-phenyl)-(6-methoxy-2,4-dihydro-indeno[1,2-c]pyrazol-3-yl)-amine] | 57 | 2.53 |
| COc1ccc2c(c1)Cc1c-2n[nH]c1Nc1cc(F)ccc1F [Compound 87, (2,5-Difluoro-phenyl)-(6-methoxy-2,4-dihydro-indeno[1,2-c]pyrazol-3-yl)-amine] | 91 | 0.069 |
| COc1ccc2c(c1)Cc1c-2n[nH]c1Nc1ccc(OC(F)(F)F)cc1 [Compound 88, (6-Methoxy-2,4-dihydro-indeno[1,2-c]pyrazol-3-yl)-(4-trifluoromethoxy-phenyl)-amine] | 42 | 20.8 |
| COc1ccc2c(c1)Cc1c-2n[nH]c1Nc1ccc(C(F)(F)F)cc1 [Compound 89, (6-Methoxy-2,4-dihydro-indeno[1,2-c]pyrazol-3-yl)-(4-trifluoromethyl-phenyl)-amine] | 88 | 0.886 |
| CN(C)c1ccc2c(c1)Cc1c-2n[nH]c1Nc1ccccc1 [Compound 92, N6,N6-Dimethyl-N3-phenyl-2,4-dihydro-indeno[1,2-c]pyrazole-3,6-diamine] | 75 | 0.383 |
| c1ccc(Nc2[nH]nc3c2CCc2ccccc2-3)cc1 [Compound 93, (4,5-Dihydro-2H-benzo[g]indazol-3-yl)-phenyl-amine] | 88 | 1.03 |
| c1ccc(Nc2[nH]nc3c2Cc2sccc2-3)cc1 [Compound 94, (5,7-Dihydro-1-thia-4,5-diaza-cyclopenta[a]pentalen-6-yl)-phenyl-amine] | 95 | 0.415 |
| Brc1cccc(Nc2[nH]nc3c2Cc2cc4c(cc2-3)OCO4)c1 [Compound 95, (3-Bromo-phenyl)-(2,9-dihydro-5,7-dioxa-2,3-diaza-cyclopenta[a]-s-indacen-1-yl)-amine] | 91 | 0.063 |
| Fc1cccc(Nc2[nH]nc3c2Cc2cc4c(cc2-3)OCO4)c1 [Compound 96, (2,9-Dihydro-5,7-dioxa-2,3-diaza-cyclopenta[a]-s-indacen-1-yl)-(3-fluoro-phenyl)-amine] | 93 | 0.076 |
| Cc1cccc2c1Cc1c-2n[nH]c1Nc1ccc(F)cc1 [Compound 98, (4-Fluoro-phenyl)-(5-methyl-2,4-dihydro-indeno[1,2-c]pyrazol-3-yl)-amine] | 26 | 30.7 |
| Cc1cccc2c1Cc1c-2n[nH]c1Nc1cccc(F)c1 [Compound 99, (3-Fluoro-phenyl)-(5-methyl-2,4-dihydro-indeno[1,2-c]pyrazol-3-yl)-amine] | 87.5 | 1.47 |
| Cc1cccc2c1Cc1c-2n[nH]c1Nc1cccnc1 [Compound 100, (5-Methyl-2,4-dihydro-indeno[1,2-c]pyrazol-3-yl)-pyridin-3-yl-amine] | 81 | 1.72 |
| COc1ccc(OC)c(Nc2[nH]nc3c2Cc2c(C)cccc2-3)c1 [Compound 101, (2,5-Dimethoxy-phenyl)-(5-methyl-2,4-dihydro-indeno[1,2-c]pyrazol-3-yl)-amine] | 52 | 1.09 |
| COc1ccc(Nc2[nH]nc3c2Cc2c(C)cccc2-3)c(OC)c1 [Compound 102, (2,4-Dimethoxy-phenyl)-(5-methyl-2,4-dihydro-indeno[1,2-c]pyrazol-3-yl)-amine] | 50 | 3.4 |
| Cc1cccc2c1Cc1c-2n[nH]c1Nc1cc(F)ccc1F [Compound 103, (2,5-Difluoro-phenyl)-(5-methyl-2,4-dihydro-indeno[1,2-c]pyrazol-3-yl)-amine] | 43 | 4.1 |
| Cc1cccc2c1Cc1c-2n[nH]c1Nc1ccc(OC(F)(F)F)cc1 [Compound 104, (5-Methyl-2,4-dihydro-indeno[1,2-c]pyrazol-3-yl)-(4-trifluoromethoxy-phenyl)-amine] | 36 | 0.666 |
| Cc1cccc2c1Cc1c-2n[nH]c1Nc1ccc(C(F)(F)F)cc1 [Compound 105, (5-Methyl-2,4-dihydro-indeno[1,2-c]pyrazol-3-yl)-(4-trifluoromethyl-phenyl)-amine] | 69 | 1.88 |

| SMILES | inhibition at 10 µM [%] | IC50 [µM] |
| --- | --- | --- |
| CC1c2ccccc2-c2n[nH]c(Nc3ccc(F)cc3)c21 (stereo not shown) [Compound 106, (4-Fluoro-phenyl)-(4-methyl-2,4-dihydro-indeno[1,2-c]pyrazol-3-yl)-amine] | 38 | 1.05 |
| COc1ccc(Nc2[nH]nc3c2C(C)c2ccccc2-3)cc1 (stereo not shown) [Compound 107, (4-Methoxy-phenyl)-(4-methyl-2,4-dihydro-indeno[1,2-c]pyrazol-3-yl)-amine] | 56 | 1.27 |
| CC1c2ccccc2-c2n[nH]c(Nc3cccc(F)c3)c21 (stereo not shown) [Compound 108, (3-Fluoro-phenyl)-(4-methyl-2,4-dihydro-indeno[1,2-c]pyrazol-3-yl)-amine] | 82 | 0.3 |
| CC1c2ccccc2-c2n[nH]c(Nc3cccnc3)c21 (stereo not shown) [Compound 109, (4-Methyl-2,4-dihydro-indeno[1,2-c]pyrazol-3-yl)-pyridin-3-yl-amine] | 83 | 0.537 |
| COc1ccc(OC)c(Nc2[nH]nc3c2C(C)c2ccccc2-3)c1 (stereo not shown) [Compound 110, (2,5-Dimethoxy-phenyl)-(4-methyl-2,4-dihydro-indeno[1,2-c]pyrazol-3-yl)-amine] | 80 | 0.189 |
| COc1ccc(Nc2[nH]nc3c2C(C)c2ccccc2-3)c(OC)c1 (stereo not shown) [Compound 111, (2,4-Dimethoxy-phenyl)-(4-methyl-2,4-dihydro-indeno[1,2-c]pyrazol-3-yl)-amine] | 95 | 0.11 |
| CC1c2ccccc2-c2n[nH]c(Nc3cc(F)ccc3F)c21 (stereo not shown) [Compound 112, (2,5-Difluoro-phenyl)-(4-methyl-2,4-dihydro-indeno[1,2-c]pyrazol-3-yl)-amine] | 72 | 0.083 |
| CC1c2ccccc2-c2n[nH]c(Nc3ccc(OC(F)(F)F)cc3)c21 (stereo not shown) [Compound 113, (4-Methyl-2,4-dihydro-indeno[1,2-c]pyrazol-3-yl)-(4-trifluoromethoxy-phenyl)-amine] | 60 | 2.45 |
| CC1c2ccccc2-c2n[nH]c(Nc3cccc(C(F)(F)F)c3)c21 (stereo not shown) [Compound 114, (4-Methyl-2,4-dihydro-indeno[1,2-c]pyrazol-3-yl)-(3-trifluoromethyl-phenyl)-amine] | 80 | 1.37 |
| COc1cc2c(cc1OC)-c1n[nH]c(Nc3cccc(C(=O)O)c3)c1C2 [Compound 115, 3-(6,7-Dimethoxy-2,4-dihydro-indeno[1,2-c]pyrazol-3-ylamino)-benzoic acid] | 82 | 3.06 |
| Nc1ccc2c(c1)Cc1c-2n[nH]c1Nc1cccc(Br)c1 [Compound 117, N3-(3-Bromo-phenyl)-2,4-dihydro-indeno[1,2-c]pyrazole-3,6-diamine] | 98 | 0.13 |
| COC(=O)c1cccc(Nc2[nH]nc3c2Cc2cc(N)ccc2-3)c1 [Compound 120, 3-(6-Amino-2,4-dihydro-indeno[1,2-c]pyrazol-3-ylamino)-benzoic acid methyl ester] | 87 | 0.308 |
| Nc1ccc2c(c1)Cc1c-2n[nH]c1Nc1cccc(F)c1 [Compound 121, N3-(3-Fluoro-phenyl)-2,4-dihydro-indeno[1,2-c]pyrazole-3,6-diamine] | 92 | 0.143 |
| COc1cccc(Nc2[nH]nc3c2Cc2cc(N4CCN(C)CC4)ccc2-3)c1 [Compound 123, (3-Methoxy-phenyl)-[6-(4-methyl-piperazin-1-yl)-2,4-dihydro-indeno[1,2-c]pyrazol-3-yl]-amine] | 87 | 0.228 |
| Oc1cc2c(cc1O)-c1n[nH]c(Nc3cccc(Br)c3)c1C2 [Compound 125, 3-(3-Bromo-phenylamino)-2,4-dihydro-indeno[1,2-c]pyrazole-6,7-diol] | 71 | 3.44 |
| c1cncc(Nc2[nH]nc3c2Cc2cc4c(cc2-3)OCO4)c1 [Compound 126, (2,9-Dihydro-5,7-dioxa-2,3-diaza-cyclopenta[a]-s-indacen-1-yl)-pyridin-3-yl-amine] | 65 | 0.176 |
| COC(=O)c1cccc(Nc2[nH]nc3c2Cc2cc4c(cc2-3)OCO4)c1 [Compound 127, 3-(2,9-Dihydro-5,7-dioxa-2,3-diaza-cyclopenta[a]-s-indacen-1-ylamino)-benzoic acid methyl ester] | 89 | 0.421 |
| COc1cccc(Nc2[nH]nc3c2Cc2cc(OCCCN4CCOCC4)c(OC)cc2-3)c1 [Compound 131, [7-Methoxy-6-(3-morpholin-4-yl-propoxy)-2,4-dihydro-indeno[1,2-c]pyrazol-3-yl]-(3-methoxy-phenyl)-amine] | 97 | 0.013 |
| COCCCOc1ccc2c(c1)Cc1c-2n[nH]c1Nc1cccc(Cl)c1 [Compound 135, (3-Chloro-phenyl)-[6-(3-methoxy-propoxy)-2,4-dihydro-indeno[1,2-c]pyrazol-3-yl]-amine] | 87 | 0.202 |

Reference: patent US7196110B2, “N-substituted tricyclic 3-aminopyrazoles as inhibitors for the treatment of cell proliferative disorders” (Janssen Phamaceutica N.V., priority 2002, dated 2007)
